Test results: patent US9579380B2, “Microporation of tissue for delivery of bioactive agents” (priority 1996, dated 2017)

Assays:
[1] = test system: healthy male volunteers; assay: Alprostadil delivery through micropores on the penis shaft with ultrasonic transducer, clinical responses; format: in vivo, human; conditions: both subjects
Method: Alprostadil, or PGE1, is a prostaglandin used therapeutically to treat male erectile dysfunction via it's vasodilator behavior. The standard delivery mode for this drug is a direct injection into the base of the penis or via a suppository inserted into the urethra. A set of experiments were conducted with two healthy male volunteers. […] A concentrated solution of alprostadil was placed in a small reservoir patch placed on the poration site, an ultrasonic transducer was then placed on the top of the reservoir and activated and the subject's erectile and other clinical responses were recorded on video tape. Both subjects developed a significant amount of engorgement of the penis, estimated as achieving 70% of more of a full erection at the dose applied. In addition, a malar flush response to the systemic levels of the drug delivered was observed. […] Both the erectile response and the malar flush provide evidence of the delivery of a clinically active amount of the drug, a well know vasodilator.

[2] = human
[3] = Morphine delivery through porated volar forearm with positive pressure gradient, venous blood morphine; conditions: solution on porated volar forearm
Source text: A solution of morphine is applied to a porated area on the volar forearm of the human subjects. A positive pressure gradient is used to provide a basal delivery rate of the morphine into the body, as determined by assay of venous blood draws at appropriate time intervals for the presence of morphine. […] Upon demand, an additional pressure bolus is applied to result in a spike in the delivery of the morphine. The additional pressure bolus is achieved in one test by use of ultrasound; or in another experiment by the use of a pressure spike.

[4] = test system: volar forearm of a healthy volunteer; assay: Heparin delivery through micropores, passive or with iontophoresis, with microscopic examination of the site
Method: A heparin solution was applied to skin porated to a depth of approximately 100 μm, allowing either passive diffusion or coupled with iontophoresis (about 1 mA/cm^2) that was applied for a sufficient period of time to transport the heparin through the micropores into the underlying tissues. […] An experiment was conducted wherein a site on the volar forearm of a healthy volunteer was prepared by creating a matrix of 36 micropores within a 1 square cm area. A small reservoir containing a sodium heparin solution and the negative electrode for an iontophoretic system was attached to the site. The positive electrode was attached to the subject's skin some distance away using a hydrogel electrode obtained from Iomed, a commercial supplier of iontophoretic systems. The system was run for ten minutes at 0.2 milliamperes per square cm.

[5] = test system: healthy non-diabetic subject; assay: Insulin delivery through porated skin, finger stick blood glucose; format: in vivo, human
Source text: Insulin, like many compounds normally present in the healthy individual, is a polypeptide which must be maintained in individuals, such as diabetics who need exogenous insulin, at both a basal level and be given in a pulsatile bolus fashion in response to meals and the subject's activity levels. Currently this is achieved via subcutaneous injections of fast acting and slow acting formulations. Because of the molecular weight of insulin, typically ˜6000, it is not able to be delivered at clinically useful levels with traditional transdermal or transmucosal methods. However, by opening the micropores through the barrier layers of the skin or mucosa, a clear path is provided allowing the delivery of the insulin into the viable tissues wherein the interstitial fluid present in these tissues will allow diffusion (including osmotically driven) of the insulin to and into the lymph system and capillary bed, delivering clinically useful amounts. A concentrated insulin solution containing 3500 IU/ml of recombinant human insulin purchased from Boehringer-Mannhein Co., was applied in a reservoir to a porated of the subject's skin on the volar forearm covering 4 square cm. The healthy, person, non-diabetic, subject fasted for 14 hours prior to the start of the experiment. Intravenous and finger stick blood samples were drawn periodically prior to and after the delivery phase began and assayed for glucose, insulin and C-peptide.
The use of liposomes, lipid complexes, microspheres including nanospheres, PEGellated compounds (compounds combined with polyethylene glycol) and other microparticles as part of a drug delivery system is well developed for many different specific applications. In particular, when dealing with a compound which is easily broken down by the endogenous components in the body's tissues such as protease, nuclease, or carbohydrase enzymes in the skin, tissues, the macrophages or other cells present in the blood stream or lymph, increases in bio-availability and/or sustained […]. A repeat of this procedure with the addition of ultrasound operating at 44 khz, and 0.2 watts/square cm indicated a more rapid delivery of the insulin as evidenced by the subject's glucose levels which dropped from 109 mg/dl to 78 mg/dl less than 30 minutes after the delivery began. As in the case of example 45, for heparin delivery, a low current iontophoretic system can be coupled with the micropores to facilitate a greater flux rate and provide the ability to modulate this flux rate by varying the current, allowing a delivery on demand type of system to be built. Previous work with insulin has typically shown that relatively high iontophoretic currents are required to overcome the strong barrier properties of the intact stratum corneum. […]

In the case of `CCCCC[C@H](O)/C=C/[C@H]1[C@H](O)CC(=O)[C@@H]1CCCCCCC(=O)O` [alprostadil, Alprostadil], the “engorgement of the penis, estimated share of a full erection” value ([1]; 12 to 36 micropores, roughly 100 microns deep, on 1 square cm, concentrated solution plus ultrasonic transducer) was at least 70% and the “malar flush response to systemic levels of the drug” value ([1]; over a 30 to 60 minute delivery period) was “profound malar flush”.

In the case of `CN(C)c1ccc2nc3ccc(=[N+](C)C)cc-3sc2c1` [methylene blue, Methylene blue], the “lag time of pulse of indicator molecules on application of sonic energy” value [2] was under 0.1 s, the “shutoff lag of pulse of indicator molecules on turning off sonic energy” value [2] was under 0.1 s and the “level of dye solution in receiver medium (no visual indication of dye flux)” value ([2]; 5 min) was < 0.0015 % (v/v).

With `CN1CC[C@]23c4c5ccc(O)c4O[C@H]2[C@@H](O)C=C[C@H]3[C@H]1C5` [morphine] the “basal level of morphine in venous blood” value [3] was 3 to 6 ng/mL.

For heparin, the “clotting of red cells in collected ISF” value ([4]; 36 micropores in 1 square cm, iontophoresis 0.2 milliamperes per square cm for ten minutes) was “no clotting took place”, the “microscopic examination of the site” value ([4]; 36 micropores in 1 square cm, sodium heparin solution, iontophoresis 0.2 milliamperes per square cm for ten minutes) was “vasodilation of the capillaries” and the “microscopic examination of the in vivo site” value ([4]; skin porated to approximately 100 μm, passive diffusion and iontophoresis (about 1 mA/cm^2)) was “increased capillary dilation and permeability”.

For insulin, the “time to depression of glucose levels” value ([5]; 3500 IU/ml solution on 4 square cm porated volar forearm, passive) was “approximately 4 hours”, the “finger stick blood glucose after depression” value ([5]; 3500 IU/ml solution on 4 square cm porated volar forearm, passive, fasted 14 hours, from 100 mg/dl at the start, over a ten minute cycle) was 67 mg/dL and the “time to glucose drop after delivery began” value ([5]; with ultrasound at 44 khz and 0.2 watts/square cm) was “less than 30 minutes”. The “glucose level after drop” value ([5]; with ultrasound at 44 khz and 0.2 watts/square cm, from 109 mg/dl) was 78 mg/dL.
